# Test results reported in patent US6825209B2, “Compounds having unique CB1 receptor binding selectivity and methods for their production and use” (Research Triangle Institute, priority 2002, dated 2004).
# Read-outs that look alike come from different tables or passages of the source.
# Columns and labels:
# Assay type in all cases: binding
# CB1 receptor = biological target: T1, CB1 receptor (Rattus norvegicus, UniProt P20272); experiment: Radioligand displacement in whole rat brain (CB1) membrane preparations
# T1 construct: Whole rat brains or dissected regions from live CD rats; tissue Charles River or Pel-Freez Biologicals; host or cells: whole rat brain (CD rats), P2 membrane
# Text: CB1 receptor affinity in rat brain.
# Methods—membrane preparation from brain. The methods for tissue preparation are essentially those described by Devane et al. (1988) as modified by Compton et al. (1993) and later by Thomas et al. (1998). Whole rat brains or dissected regions from live CD rats from Charles River or Pel-Freez Biologicals (Rogers, Ark.), or human brain sections obtained from the National Disease Research Institute, were allowed to thaw to room temperature on ice. Both whole brain and dissected brain regions were used because different brain regions may express different cannabinoid receptor subtypes (Skaper et al., 1996; Thomas et al., 1998). The tissue was homogenized with a Kontes Potter-Elvehjem glass-Teflon grinding system (Fisher Scientific, Springfield, N.J.) in buffer 1 (320 mM sucrose, 2 mM EDTA, 5 mM MgCl2. The homogenate was centrifuged at 1600 g for 10 min. The supernatant was saved and combined with the two subsequent supernatants obtained from washing and 1600 g centrifugation of the P1 pellet. The combined supernatant fractions were then centrifuged at 39,000 g for 15 min. The P2 pellet was resuspended in 50 mL of buffer 2 (50 mM Tris.HCl, 2 mM EDTA, 5 mM MgCl2, pH 7.0), incubated at 37° C. for 10 min, then centrifuged at 23,000 g for 10 min. The P2 membrane was resuspended in 50 mL of buffer 2, incubated at 30° C. for 40 min, then centrifuged at 11,000 g for 15 min. The final wash-treated P2 pellet was resuspended in assay buffer 3 (50 mM Tris.HCl, 1 mM EDTA, 3 MM MgCl2, pH 7.4). Protein concentrations were determined by the method of Bradford (1976) using Coomassie brilliant blue dye (Bio-Rad, Richmond, Calif.) and BSA standards (bovine serum albumin, fatty acid free, Sigma Chemical Co., St. Louis, Mo.) prepared in assay buffer 3. The membrane preparation was divided into aliquots and stored at −80° C. For use in the binding assay, an aliquot of frozen membranes was thawed on ice and diluted to a concentration of ca. 0.2 mg/mL in assay buffer.
# Methods—binding assay in brain membrane preparation. The methods for ligand binding are essentially those described by Devane et al. (1988) with the exception that we used a filtration assay. […] All cannabinoid analogs were prepared by suspension in buffer A from a 1-5 mg/mL ethanolic stock. Following incubation at 30° C. for 1 h, binding was terminated by vacuum filtration through pretreated filters in a 96-well sampling manifold (Millipore, Bedford, Mass.). Reaction vessels were washed at least 3 times with 1 mL of ice cold buffer B (50 mM Tris.HCl, 1 mg/mL BSA). The filter plates were air-dried and sealed on the bottom. Liquid scintillant was added to the wells and the top sealed. After incubating the plates in cocktail for at least 2 h, the radioactivity present was determined by liquid scintillation spectrometry. Assays were done in duplicate, and results represent the combined data of three to six independent experiments. All assays were performed in polypropylene test tubes. The GF/C glassfiber filter plates (Packard, Meriden, Conn.) were pretreated in buffer B for at least 1 h.
# (§1) Data analysis. Saturation and displacement data were analyzed by unweighted nonlinear regression of receptor binding data. For displacement studies, curve-fitting and IC50 calculation were done with GraphPad Prism (GraphPad Software, Inc., San Diego, Calif.), which fits the data to one and two-site models and compares the two fits statistically. A similar approach was used for the analysis of isotherm data for calculation of Kd's. A two-site fit was accepted only if it was statistically significant (p<0.05) and the following results were not observed:
# (§2) IC50 values were then converted to Ki values by reported methods (Cheng and Prusoff, 1973). The statistical evaluation of curve-fitting data allowed for a non-arbitrary conclusion based on the displacement data.
# human CB1 receptor = biological target: T2, human CB1 receptor (Homo sapiens, UniProt P21554); experiment: Radioligand displacement in human CB1 receptor-transfected cells (HEK-293)
# T2 construct: expressed in transfected cells; host or cells: HEK-293
# Description: Human CB1 receptor affinity. The alkyl amide analogs of the present invention were examined using transfected cell lines expressing the human CB1 receptor (Table 3).
# (§3) Methods—binding assay in transfected cell lines. The methods used for performing binding assays in transfected cells expressing human CB1 or CB2 receptors are those used above. The CB1 receptor involved a HEK-293 expression system whereas the CB2 receptor was expressed in CHO-K1 cells. […] The incubations and separations were then performed as described above for rat brain membrane preparations.
# as §1, §2
# human CB2 receptor = biological target: T3, human CB2 receptor (Homo sapiens, UniProt P34972); experiment: Displacement of 3H-CP55,940 in human CB2 receptor-transfected cells (CHO-K1); conditions: radioligand 3H-CP55940, Tables 6 and 7
# T3 construct: expressed in transfected cells; host or cells: CHO-K1
# Description: Human CB2 receptor affinity. The relative selectivity of the analogs for CB1 versus CB2 receptors varied modestly regardless of the structural modifications examined to date.
# as §3, §1, §2
# [1] = Ki, displacement of 3H-CP55940, whole rat brain, 3H-CP55940, Table 4, parallel synthesis analogs, n = 1, concentration assumes 100% yield
# [2] = Ki, displacement of 3H-SR141716A, whole rat brain, 3H-SR141716A, Table 4, parallel synthesis analogs, n = 1, concentration assumes 100% yield
# [3] = Ki, displacement of 3H-WIN55212-2, whole rat brain, 3H-WIN55212-2, Table 4, parallel synthesis analogs, n = 1, concentration assumes 100% yield
# [4] = whole rat brain, 3H-CP55940, Table 4, parallel synthesis analogs, n = 1
# [5] = whole rat brain, 3H-SR141716A, Table 4, parallel synthesis analogs, n = 1
# [6] = whole rat brain, 3H-WIN55212-2, Table 4, parallel synthesis analogs, n = 1
# [7] = displacement of 3H-CP55940, human CB1 transfected cells, 3H-CP55940, Table 5, parallel synthesis analogs, concentration assumes 100% yield
# [8] = displacement of 3H-SR141716A, human CB1 transfected cells, 3H-SR141716A, Table 5, parallel synthesis analogs, concentration assumes 100% yield
# [9] = displacement of 3H-WIN55212-2, human CB1 transfected cells, 3H-WIN55212-2, Table 5, parallel synthesis analogs, concentration assumes 100% yield
# [10] = human CB1 transfected cells, 3H-CP55940, Table 5, parallel synthesis analogs
# [11] = human CB1 transfected cells, 3H-SR141716A, Table 5, parallel synthesis analogs
# [12] = human CB1 transfected cells, 3H-WIN55212-2, Table 5, parallel synthesis analogs
# [13] = whole rat brain membranes, radioligand 3H-CP55940, Tables 1 and 2
# [14] = whole rat brain membranes, radioligand 3H-SR141716A, Tables 1 and 2
# T3 sequence (P34972 whole entry): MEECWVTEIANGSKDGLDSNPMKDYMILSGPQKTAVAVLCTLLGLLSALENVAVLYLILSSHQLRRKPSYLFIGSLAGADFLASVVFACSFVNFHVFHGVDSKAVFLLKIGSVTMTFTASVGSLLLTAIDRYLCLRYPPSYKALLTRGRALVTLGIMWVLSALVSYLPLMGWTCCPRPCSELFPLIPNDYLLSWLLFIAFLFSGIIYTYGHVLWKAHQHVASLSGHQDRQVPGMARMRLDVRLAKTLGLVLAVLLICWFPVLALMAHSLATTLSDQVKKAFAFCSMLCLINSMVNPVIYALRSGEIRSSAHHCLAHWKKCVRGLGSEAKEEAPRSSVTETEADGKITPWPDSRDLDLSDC
# T1 sequence (P20272 whole entry): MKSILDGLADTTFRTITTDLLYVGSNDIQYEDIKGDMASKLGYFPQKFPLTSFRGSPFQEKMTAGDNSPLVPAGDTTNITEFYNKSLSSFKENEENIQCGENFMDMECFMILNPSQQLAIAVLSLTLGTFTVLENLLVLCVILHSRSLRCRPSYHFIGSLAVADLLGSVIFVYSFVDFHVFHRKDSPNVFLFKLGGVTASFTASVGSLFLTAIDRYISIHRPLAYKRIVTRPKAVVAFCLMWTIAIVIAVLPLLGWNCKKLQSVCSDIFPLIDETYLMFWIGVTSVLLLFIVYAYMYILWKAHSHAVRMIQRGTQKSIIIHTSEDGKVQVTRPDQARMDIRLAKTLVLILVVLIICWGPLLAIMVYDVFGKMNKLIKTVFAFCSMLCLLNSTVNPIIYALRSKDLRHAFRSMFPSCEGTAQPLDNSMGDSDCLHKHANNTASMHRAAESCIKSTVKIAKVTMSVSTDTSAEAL
# T2 sequence (P21554 whole entry): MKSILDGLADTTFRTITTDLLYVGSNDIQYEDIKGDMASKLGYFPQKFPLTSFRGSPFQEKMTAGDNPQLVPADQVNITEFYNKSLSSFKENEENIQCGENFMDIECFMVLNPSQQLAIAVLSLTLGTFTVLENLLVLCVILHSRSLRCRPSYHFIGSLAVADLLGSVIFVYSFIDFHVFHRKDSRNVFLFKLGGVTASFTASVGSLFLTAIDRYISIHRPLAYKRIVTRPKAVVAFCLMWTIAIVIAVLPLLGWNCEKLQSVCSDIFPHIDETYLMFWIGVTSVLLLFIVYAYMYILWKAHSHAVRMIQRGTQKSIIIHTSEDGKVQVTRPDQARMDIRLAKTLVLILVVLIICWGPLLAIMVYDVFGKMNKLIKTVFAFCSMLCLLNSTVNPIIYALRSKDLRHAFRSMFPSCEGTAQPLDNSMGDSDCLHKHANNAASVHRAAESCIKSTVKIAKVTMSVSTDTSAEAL
SMILES,Ki (CB1 receptor; [1]),Ki (CB1 receptor; [2]),Ki (CB1 receptor; [3]),"Max. Disp. %, 3H-CP55940 (CB1 receptor; [4])","Max. Disp. %, 3H-SR141716A (CB1 receptor; [5])","Max. Disp. %, 3H-WIN55212-2 (CB1 receptor; [6])",Ki (human CB1 receptor; [7]),Ki (human CB1 receptor; [8]),Ki (human CB1 receptor; [9]),"Max. Disp. %, 3H-CP55940 (human CB1 receptor; [10])","Max. Disp. %, 3H-SR141716A (human CB1 receptor; [11])","Max. Disp. %, 3H-WIN55212-2 (human CB1 receptor; [12])","Max. Disp. %, 3H-CP55940 (CB1 receptor; [13])","Max. Disp. %, 3H-SR141716A (CB1 receptor; [14])","Max. Disp. %, 3H-CP55940 (human CB2 receptor; human CB2 transfected cells)",other results
Cc1c(C(=O)NO)nn(-c2ccc(Cl)cc2Cl)c1-c1ccc(Cl)cc1 [MF9725-131-25],,,,,,,,,,,,,58.4%,65.7%,27.0%,"Ki (CB1 receptor; read-out: Ki, displacement of 3H-CP55940, whole rat brain membranes, radioligand 3H-CP55940, Tables 1 and 2): 1690 nM; Ki (CB1 receptor; read-out: Ki, displacement of 3H-SR141716A, whole rat brain membranes, radioligand 3H-SR141716A, Tables 1 and 2): 1560 nM; Ki (human CB2 receptor; read-out: Ki, displacement of 3H-CP55940, human CB2 transfected cells): 7820 nM"
CCCCCCC(C)(C)NC(=O)c1nn(-c2ccc(Cl)cc2Cl)c(-c2ccc(Cl)cc2)c1C [MF10110-119-11],,,,,,,,,,,,,83.2%,76.4%,52.8%,"Ki (CB1 receptor; Ki, displacement of 3H-CP55940, whole rat brain membranes, radioligand 3H-CP55940, Tables 1 and 2): 181 nM; Ki (CB1 receptor; Ki, displacement of 3H-SR141716A, whole rat brain membranes, radioligand 3H-SR141716A, Tables 1 and 2): 21.6 nM; Ki (CB1 receptor; Ki, displacement of 3H-WIN55212-2, whole rat brain membranes, radioligand 3H-WIN55212-2, Tables 1 and 2): 10.4 nM; Max. Disp. %, 3H-WIN55212-2 (CB1 receptor; whole rat brain membranes, radioligand 3H-WIN55212-2, Tables 1 and 2): 72.2%; Max. Disp. %, 3H-SR141716A (human CB1 receptor): 99.9%; Max. Disp. %, 3H-WIN55212-2 (human CB1 receptor): 86.5%; Ki (human CB1 receptor; displacement of 3H-CP55940): 32.7 nM; Ki (human CB1 receptor; displacement of 3H-SR141716A): 5 nM; Ki (human CB1 receptor; displacement of 3H-WIN55212-2): 14.4 nM; Ki (human CB2 receptor; Ki, displacement of 3H-CP55940, human CB2 transfected cells): 16600 nM"
Cc1c(C(=O)O)nn(-c2ccc(Cl)cc2Cl)c1-c1ccc(Cl)cc1 [SH9631-55],,,,,,,,,,,,,8.2%,0%,0.0%,"Ki, displacement of 3H-SR141716A (CB1 receptor; [14]): Nr; Ki, displacement of 3H-CP55940 (human CB2 receptor; human CB2 transfected cells): nr"

# Second part, led by results:
Ki (CB1 receptor; [1]),Ki (CB1 receptor; [2]),Ki (CB1 receptor; [3]),"Max. Disp. %, 3H-CP55940 (CB1 receptor; [4])","Max. Disp. %, 3H-SR141716A (CB1 receptor; [5])","Max. Disp. %, 3H-WIN55212-2 (CB1 receptor; [6])",Ki (human CB1 receptor; [7]),Ki (human CB1 receptor; [8]),Ki (human CB1 receptor; [9]),"Max. Disp. %, 3H-CP55940 (human CB1 receptor; [10])","Max. Disp. %, 3H-SR141716A (human CB1 receptor; [11])","Max. Disp. %, 3H-WIN55212-2 (human CB1 receptor; [12])","Max. Disp. %, 3H-CP55940 (CB1 receptor; [13])","Max. Disp. %, 3H-SR141716A (CB1 receptor; [14])","Max. Disp. %, 3H-CP55940 (human CB2 receptor; human CB2 transfected cells)",SMILES,other results
109 nM,53.7 nM,238 nM,82.6%,95.6%,56.5%,176 nM,43.5 nM,13.8 nM,79.5%,89.8%,31.4%,,,,CCCCCCCCCCCCNC(=O)c1nn(-c2ccc(Cl)cc2Cl)c(-c2ccc(Cl)cc2)c1C [BT-2],
492 nM,172 nM,495 nM,79.3%,97.6%,80.5%,201 nM,4.2 nM,173 nM,75.9%,91.3%,94.9%,,,,CCCCCCCCCCCCCNC(=O)c1nn(-c2ccc(Cl)cc2Cl)c(-c2ccc(Cl)cc2)c1C [BT-6],
168 nM,25.5 nM,278 nM,86.4%,83.8%,90.3%,45.6 nM,5.2 nM,11.7 nM,82.4%,96.9%,54.9%,,,,CCCCCCCCCCCNC(=O)c1nn(-c2ccc(Cl)cc2Cl)c(-c2ccc(Cl)cc2)c1C [BT-7],
